Measurements as given in patent publication US12643899B2, “Antiviral agents, uses thereof and methods for their preparation” (The University of British Columbia, priority 2020, dated 2026).
Like-named read-outs stand apart in the source and are kept apart here.

Experiments:
[1] = tested on: SARS-CoV-2; test: SARS-CoV-2 intracellular viral RNA and nucleocapsid protein in Caco-2 cells; format: cell-based
[2] = tested on: DENV-3; test: DENV-3 intracellular dsRNA (Cellomics) in A549 cells; format: cell-based, dengue virus
Experimental: (§1) Error bars represent SD among 3 biological replicates. Cultured A549 cells were treated with the indicated concentrations of CA (1=Mock, 2=0 M, 3=1 μM, 4=5 M, 5=10 M, 6=20 µM) or PF-429242 (7=15 M) for 1 h before being washed with PBS and infected with DENV-2, DENV-3, or DENV-4 at MOI 1.0 for 48 h. Cells were labeled for viral dsRNA with […] then imaged and quantified using the Cellomics ArrayScan™ VTI High Content Screening system.
(§2) Viruses. ZIKV: ZIKV strain PRVABC59 (Puerto Rico/2015) (ATCC #VR-1843) was used in these studies, specifically three separate stocks generated in Vero E6 cells with titres of 1.35×10^8 pfu/mL, 1.0×10^7 pfu/mL, and 2.9×10^6 pfu/mL respectively. DENV strains: DENV-2 strain NGC, DENV-3 strain H-87, and DENV-4 strain H-241 were kindly provided by National Microbiology Laboratory, Winnipeg, MB, Canada.
(§3) A549 cells were seeded onto Corning tissue culture treated 96 well plates and incubated at 37 degrees Celsius and 5% CO2 for 24 h. CA was diluted in MEM complete media to concentrations of 1 μM, 5 μM, 10 μM, 20 μM, including a 0 μM condition. Diluted CA was added to each well and cells were incubated at 37 degrees Celsius and 5% CO2 for 1 h. After 1 h, cells were washed once with PBS to remove CA and were then infected with DENV-2, -3 or -4 at an MOI of 1. […] Labeled 96 well plates were imaged and quantified using the Cellomics ArrayScan VTI. […]

[3] = MTS cytotoxicity assay in U87 MG cells; format: cell-based; details: human, U87 MG cells (human brain)
Experimental: An MTS assay was performed to determine the cytotoxicity concentration 50% (CC50) of cladoniamide A (CA) in human A549 cells, a cell line from human lung carcinoma. Various concentrations of CA were added to cultured A549 cells and incubated (37° C., 5% CO2) for 48 h. Cell viability was then measured by an MTS assay kit (CellTiter 96™ Aqueous One Solution cell proliferation assay, Promega) according to the manufacturer's instructions. Curve fitting was performed in Igor Pro (WaveMetrics) using a hyperbolic fit algorithm (FIG. 1). The CC50 of CA in A549 cells was determined to be 54±5 μM. An MTS assay was also performed to determine the CC50 of CA in human U87 MG cells, a cell line from human brain. Various concentrations of CA were added to cultured U87 MG cells and incubated (37° C., 5% CO2) for 48 h. Cell viability was then measured by an MTS assay kit (CellTiter 96 Aqueous One Solution cell proliferation assay, Promega) according to the manufacturer's instructions. Curve fitting was performed in Igor Pro (WaveMetrics) using a hyperbolic fit algorithm (FIG. 2).

[4] = tested on: ZIKV; test: ZIKV infectivity by semisolid overlay plaque assay after pre-treatment of A549 and U87 MG cells; format: cell-based, Zika virus; details: for reduction in ZIKV titer: CA 250 nM 1 h pre-treatment, MOI 1.0, 3 d
[5] = tested on: DENV-4; test: DENV-4 intracellular dsRNA (Cellomics) in A549 cells; format: cell-based, dengue virus
Experimental: as §1, §2, §3

For `COc1c2n(c3ccccc13)[C@]1(O)C(=O)N(C)C(=O)[C@]1(O)c1c-2[nH]c2ccc(Cl)cc12` [CA, (11S,15R)-7-chloro-11,15-dihydroxy-23-methoxy-13-methyl-3,13,16-triazahexacyclo[14.7.0.0^2,10.0^4,9.0^11,15.0^17,22]tricosa-1(23),2(10),4(9),5,7,17,19,21-octaene-12,14-dione], the EC50 ([1]; Severe acute respiratory syndrome coronavirus 2, Caco-2, read-out: ED50, intracellular SARS-CoV-2 nucleocapsid protein, Caco-2 cells, 3 hours pre-treatment) was 5 nM, the EC50 ([1]; Severe acute respiratory syndrome coronavirus 2, Caco-2, read-out: ED50, intracellular viral RNA, Caco-2 cells, 3 hours pre-treatment) was 2 nM and the “activity against Dengue virus 3 in vitro” value ([2]; 1-20 μM, FIG. 8 middle plots) was “good activity”. The IC50 ([2]; Dengue virus, DENV3, DENV-3, intracellular dsRNA (Cellomics)) was 1500 nM, the CC50 at 48 h [3] was 42 ± 12 µM and the “reduction in ZIKV titer” value ([4]; A549 cells) was “greater than 4 log”. For the same compound, the “reduction in ZIKV titer” value ([4]; U87 MG cells) was “greater than 4 log”, the “inhibition of production of infectious ZIKV virions” value ([4]; at 50 nm (so in the source), FIG. 3) was “dramatically inhibited” and the “activity against Dengue virus 4 in vitro” value ([5]; 1-20 μM, FIG. 8 lower plots) was “good activity”. It also gave an IC50 ([5]; Dengue virus, DENV4, DENV-4, intracellular dsRNA (Cellomics)) of 3.2 µM.
